Measurements from ChEMBL document CHEMBL1156337, “Synthesis and evaluation of novel benzothiazole derivatives based on the bithiophene structure as potential radiotracers for beta-amyloid plaques in Alzheimer's disease” (Bioorg Med Chem, 2010).
Active and inactive are the calls of the source. The rule behind the calls is not given here.

Key:
[1] = Binding affinity to amyloid beta (1 to 42) aggregates after 2 hrs by saturation binding method
[2] = Binding affinity to amyloid beta (1 to 40) aggregates after 2 hrs by saturation binding method
Mus musculus [3] = species: Mus musculus; experiment: Binding affinity to beta amyloid plaques in brain sections of TgC57 transgenic mouse transfected with APP and PS1 double mutant after 10 mins using thioflavin-S stain; type: tissue-based
[4] = Displacement of [125I]TZDM from amyloid beta (1 to 40) aggregates after 2 hrs
[5] = Displacement of [125I]TZDM from amyloid beta (1 to 42) aggregates after 2 hrs
[6] = Binding affinity to amyloid beta aggregates
Mus musculus [7] = species: Mus musculus; experiment: Binding affinity to beta amyloid plaques in brain sections of TgC57 transgenic mouse transfected with APP and PS1 double mutant after 30 mins by autoradiography; type: tissue-based; conditions: tested as the 125I-labelled form
Mus musculus [8] = species: Mus musculus; experiment: Binding affinity to beta amyloid plaques in brain sections of TgC57 transgenic mouse transfected with APP and PS1 double mutant after 30 mins by autoradiography in the presence of thioflavin-T; type: tissue-based; conditions: tested as the 125I-labelled form

| Activity (Mus musculus [3]) | Ki [4] [nM] | Ki [5] [nM] | Compound | other results |
| --- | --- | --- | --- | --- |
|  |  |  | CN(C)c1ccc(-c2nc3ccc([125I])cc3s2)cc1 | Ki [1]: 0.13 nM; Ki [2]: 0.09 nM |
| Active | 0.57 | 0.6 | Brc1ccc2nc(-c3ccc(-c4cccs4)s3)sc2c1 |  |
| Active | 0.6 | 2.09 | COc1ccc2nc(-c3ccc(-c4cccs4)s3)sc2c1 |  |
|  |  |  | N#CC(C#N)=Cc1ccc(-c2ccc(-c3ccc(O)cc3)s2)s1 | Ki [6]: 10 nM |
|  | 0.77 |  | CNc1ccc(-c2nc3ccc(O)cc3s2)cc1 [PITTSBURGH COMPOUND B UNLABELLED] |  |
| Active | 0.31 | 0.25 | Ic1ccc2nc(-c3ccc(-c4cccs4)s3)sc2c1 | Activity (Mus musculus [7]): Active; Activity (Mus musculus [8]): inactive |
